Laboratory results taken from patent US5840677A, “Boronic acid or borinic acid derivatives as enzyme stabilizers” (Novo Nordisk A/S, priority 1993, dated 1998).

Legend:
subtilisin = settings: Keller et al, Biochem. Biophys. Res. Com. 176, 1991; cited from earlier work
Savinase [1] = molecular target: T1, Savinase (Lederbergia lenta, UniProt P29600); experiment: biochemical; parameters: species or system Bacillus; settings: substrate SAAPFpNA; 0.1 M Tris-HCl pH 8.6; 25° C.; Savinase 1-10^-10 -3×10^-10 M
T1 construct: purchased Novo Nordisk A/S
T1 sequence (P29600 1-269): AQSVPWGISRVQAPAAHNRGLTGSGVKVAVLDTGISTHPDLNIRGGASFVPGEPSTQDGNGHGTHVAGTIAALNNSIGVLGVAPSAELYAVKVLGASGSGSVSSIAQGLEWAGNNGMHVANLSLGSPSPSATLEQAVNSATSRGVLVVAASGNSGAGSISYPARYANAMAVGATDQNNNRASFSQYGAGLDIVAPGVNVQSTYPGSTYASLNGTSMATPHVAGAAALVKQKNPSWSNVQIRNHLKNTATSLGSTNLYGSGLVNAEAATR
Description: (§1) c) Determination of Ki : The inhibition constant Ki may be determined by using standard methods, for reference see Keller et al, Biochem. Biophys. Res. Com. 176, 1991, pp.401-405; J. Bieth in Bayer-Symposium "Proteinase Inhibitors", pp. 463-469, Springer-Verlag, 1974 and Lone Kierstein Hansen in "Determination of Specific Activities of Selected Detergent Proteases using Protease Activity, Molecular Weights, Kinetic Parameters and Inhibition Kinetics", PhD-report, Novo Nordisk A/S and University of Copenhagen, 1991.
(§2) The inhibition constants Ki, for the inhibition of Alcalase and Savinase respectively, were determined using standard methods under the following conditions:
(§3) Substrate: Succinyl-Alanine-Alanine-Proline-Phenylalanine-para-nitro-anilide=SAAPFpNA(Sigma S-7388).
(§4) Buffer: 0.1 M Tris-HCl pH 8.6; 25° C.
(§5) Enzyme concentration in assay
(§6) The initial rate of substrate hydrolysis was determined at nine substrate concenterations in the range of 0.01 to 2 mM using a Cobas Fara automated spectrophotometer. The kinetic parameters Vmax and Km were determined using ENZFITTER (a non-linear regression data analysis program). kcat was calculated from the equation Vmax =kcat X[Eo ]. The concentration of active enzyme [Eo ] was determined by active site titration using tight-binding protein proteinase inhibitors. The inhibition constant Ki was calculated from plots of Km /kcat as a function of the concentration of inhibitor. The inhibitors were assumed to be 100% pure and the molar concentrations were determined using weighing numbers and molecular weights.

Alcalase = molecular target: T2, Alcalase (Bacillus licheniformis, UniProt P00780); experiment: biochemical; settings: substrate SAAPFpNA; 0.1 M Tris-HCl pH 8.6; 25° C.; Alcalase 1×10^-10 -3×10^-10 M
T2 construct: purchased Novo Nordisk A/S
T2 sequence (P00780 106-379): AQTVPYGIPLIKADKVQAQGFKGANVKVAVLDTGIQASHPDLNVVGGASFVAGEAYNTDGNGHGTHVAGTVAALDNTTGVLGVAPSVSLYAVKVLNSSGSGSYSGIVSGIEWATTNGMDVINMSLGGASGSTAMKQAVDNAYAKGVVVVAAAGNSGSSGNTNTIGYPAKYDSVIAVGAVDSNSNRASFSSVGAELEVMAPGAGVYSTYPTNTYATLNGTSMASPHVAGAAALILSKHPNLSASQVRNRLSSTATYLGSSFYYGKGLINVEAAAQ
Description: as §1, §2, §3, §4, §5, §6

Savinase [2] = molecular target: T1, Savinase; experiment: Storage Stability Test in Liquid Detergent (improvement factor IFI, inhibition of protease); type: biochemical, Bacillus; settings: US-type liquid detergent, 1% w/w Savinase + 1% w/w Lipolase, 0, 3, 7 and 14 days at 30° C.
Procedure: a) Storage Stability Test in Licuid Deterrent: Enzyme(s) and stabilizer are added to a liquid detergent formulation and stored at well defined conditions. The enzyme activity of each enzyme is determined as a function of time, e.g. after 0, 3, 7 and 14 days.
To calculate the inhibition efficiency from the storage stability date a reaction mechanism is proposed.
From these reactions three coupled differential equations are derived describing the deactivation of P, L and PI. The reaction rate constants are derived from storage stability data by the use of a parameter estimation method (Gauss-Newton with the Levenberg modification). The storage stability data give the concentration of (P+PI) and L as a function of time.
Reaction IV is excluded from the system to reduce the number of parameters thereby describing the stability of the inhibited enzyme by only one reaction rate constant (from equation V).
In all experiments there is a large surplus of inhibitor molecules compared to protease molecules, i.e. a constant concentration of inhibitor (corresponding to the added amount of inhibitor) is a reasonable assumption.
An improvement factor is thus derived: [formula] IFI measures the inhibition efficiency given by the inhibition constants KI from reaction III.
Different boronic and borinic acid derivative enzyme stabilizers were also tested in storage stability tests in liquid detergents using the method described previously under the following conditions: […]

proteolytic enzymes = settings: prior art; cited from earlier work
[3] = stabilizer 5 mmole/kg, relative to boric acid

Row | Compound | Ki (Savinase [1]) [mM] | Ki (Alcalase) [mM] | Improvement factor IFI (Savinase [2]; [3]) | capacity as subtilisin inhibitor (subtilisin) | inhibition of proteolytic enzymes (proteolytic enzymes) | Improvement factor IFI (Savinase [2]; reference, boric acid 160 mmole/kg)
1 | COc1ccc(B(O)O)cc1 [4-methoxyphenyl] | – | – | – | very good inhibitors | – | –
2 | OB(O)O [Boric acid, reference compound] | – | – | – | – | reversibly inhibit proteolytic enzymes | 1
3 | Picoline-2-boronic acid | 4 | 3 | – | – | – | –
4 | OB(O)CCc1cccc2[nH]c3ccccc3c12 [4-Carbazole ethyl boronic acid] | 2 | 1 | – | – | – | –
5 | COc1ccsc1B(O)O [3-Methoxythiophene-2-boronic acid] | 1.2 | 3 | 8 | – | – | –
6 | OB(O)c1cc2ccccc2o1 | 0.8 | 1 | – | – | – | –
7 | OB(O)c1ccccc1 [phenyl] | – | – | – | very good inhibitors | – | –
8 | Cc1csc(B(O)O)c1 [4-Methylthiophene-2-boronic acid] | 3 | 1.8 | 4 | – | – | –
9 | CB(O)O [methylboronic acid] | – | – | – | poorest inhibitor | – | –
10 | Cc1cc(B(O)O)c(C)s1 [2,5-dimethylthiophene-3-boronic acid] | 6 | 3 | 7 | – | – | –
11 | OB(O)CCC1CCCCC1 [2-cyclohexylethyl] | – | – | – | poor inhibitors | – | –
12 | CCCCB(O)O [butyl] | – | – | – | poor inhibitors | – | –
13 | OB(O)c1cc(Cl)cc(Cl)c1 [3,5-dichlorophenylboronic acid] | – | – | – | particularly effective | – | –
14 | acetamidobenzene boronic acid | – | – | – | – | superior inhibitor of proteolytic enzymes | –
15 | OB(O)c1sccc1Br [3-Bromothiophene-2-boronic acid] | 2 | 2 | – | – | – | –
16 | OB(O)c1cccs1 [Thiophene-2-boronic acid] | 2 | 2 | 72 | – | – | –

Continued, in another order:

Row | Ki (Savinase [1]) [mM] | Ki (Alcalase) [mM] | Improvement factor IFI (Savinase [2]; [3]) | Compound | capacity as subtilisin inhibitor (subtilisin) | inhibition of proteolytic enzymes (proteolytic enzymes) | Improvement factor IFI (Savinase [2]; reference, boric acid 160 mmole/kg)
17 | 4 | 2 | – | OB(c1ccccc1)c1ccccc1 [Diphenylborinic acid (ethanolamine complex)] | – | – | –
18 | 3 | 2 | 12 | Cc1ccc(B(O)O)s1 [5-Methylthiophene-2-boronic acid] | – | – | –
19 | 2 | 2 | 63 | OB(O)c1ccsc1 [Thiophene-3-boronic acid] | – | – | –
20 | 1.5 | 1.1 | 9 | OB(O)c1cccc2oc3ccccc3c12 [Dibenzofuran-1-boronic acid] | – | – | –
21 | 3 | 2 | – | COc1ccc(B(O)O)o1 [5-Methoxyfuran-2-boronic acid] | – | – | –
22 | 7 | 10 | 32 | OB(O)c1ccoc1 [Furan-3-boronic acid] | – | – | –
23 | 0.2 | 0.3 | 123 | OB(O)c1ccc(Cl)s1 [5-Chlorothiophene-2-boronic acid] | – | – | –
24 | 1 | 2 | 14 | COc1ccc(B(O)O)s1 [5-Methoxythiophene-2-boronic acid] | – | – | –
25 | 3 | 1.5 | – | CCCc1ccc(B(O)O)s1 [5-n-Propylthiophene-2-boronic acid] | – | – | –
26 | 4 | 3 | 13 | OB(O)c1ccco1 [Furan-2-boronic acid] | – | – | –
27 | 0.2 | 0.4 | 124 | OB(O)c1ccc(Br)s1 [5-Bromothiophene-2-boronic acid] | – | – | –
28 | 1.1 | 0.9 | 19 | OB(O)c1cccc2c1oc1ccccc12 [Dibenzofuran-4-boronic acid] | – | – | –
29 | 1.5 | 0.9 | 12 | OB(O)c1cccc2sc3ccccc3c12 [Dibenzothiophene-1-boronic acid] | – | – | –
30 | – | – | 190 | OB(O)c1cc2ccccc2o1 [Benzofuran-2-boronic acid] | – | – | –
31 | 3 | 2 | – | CCc1ccc(B(O)O)o1 [5-Ethylfuran-2-boronic acid] | – | – | –
32 | 0.9 | 0.7 | 66 | CCc1ccc(B(O)O)s1 [5-Ethylthiophene-2-boronic acid] | – | – | –
33 | 3 | 2 | 20 | OB(O)c1cc2ccccc2s1 [Thionaphthrene-1-boronic acid] | – | – | –
